Values of other authors, collected in US6887894B2, “Use of lipoic acid for improving the bioavailability of mineral salts” (BASF Aktiengesellschaft, priority 2000, dated 2005).

Columns and labels:
[1] = in vivo; cited from earlier work
[2] = in vivo; cited from earlier work; remark: listed apart in the source
[3] = growing rats, suboptimal Zn supply, 1% citric acid added to phytic-acid-rich corn-germ-based diets; cited from earlier work
[4] = pigs; cited from earlier work
[5] = in vivo; cited from earlier work; remark: listed apart in the source

For `O=C1O[C@H]([C@@H](O)CO)C(O)=C1O` [Ascorbic acid], the “effect on bioavailability of inorganic iron” value [1] is given as “increases” and the “effect on bioavailability of dietary zinc” value [2] is given as “does not change”.

For `O=C(O)CC(O)(CC(=O)O)C(=O)O` [citric acid], the “Zn status (plasma Zn concentration, alkaline phosphatase activity, metallothioneine concentration in the jejunum)” value [3] is listed as “moderate improvement” and the “effect on Zn utilization” value [4] is listed as “positive effects”.

For `CCC(=O)[O-].CCC(=O)[O-].[Zn+2]` [zinc propionate], the “bioavailability of Zn2+ from organic or inorganic sources” value [5] is listed as “roughly comparable”.
